# According to ChEMBL document CHEMBL1124803, “Evolution of a series of peptidoleukotriene antagonists: synthesis and structure/activity relationships of 1,3,5-substituted indoles and indazoles” (J Med Chem, 1990):
# Activity calls are given as the source filed them. No cut-off for these calls is given here.
# What was measured:
# [1] = biological target: Cysteinyl leukotriene receptor 1 (Cavia porcellus); test: Inhibition constant for displacement of [3H]LTD4 on guinea pig lung parenchymal membranes.
# [2] = system: Cysteinyl leukotriene receptor 1 (Cavia porcellus); test: Dissociation constant (Kb) against LTD4
# [3] = system: Cavia porcellus; test: Effective dose of compound was measured in vivo for blocking LTD4 induced dyspnea after po administration.; format: functional
# [4] = biological target: T1, Cysteinyl leukotriene receptor 1 (Cavia porcellus, UniProt Q2NNR5); test: Displacement of [3H]LTD4 on guinea pig lung parenchymal membranes; format: tissue-based, Lung parenchyma
# T1 sequence (Q2NNR5 whole entry): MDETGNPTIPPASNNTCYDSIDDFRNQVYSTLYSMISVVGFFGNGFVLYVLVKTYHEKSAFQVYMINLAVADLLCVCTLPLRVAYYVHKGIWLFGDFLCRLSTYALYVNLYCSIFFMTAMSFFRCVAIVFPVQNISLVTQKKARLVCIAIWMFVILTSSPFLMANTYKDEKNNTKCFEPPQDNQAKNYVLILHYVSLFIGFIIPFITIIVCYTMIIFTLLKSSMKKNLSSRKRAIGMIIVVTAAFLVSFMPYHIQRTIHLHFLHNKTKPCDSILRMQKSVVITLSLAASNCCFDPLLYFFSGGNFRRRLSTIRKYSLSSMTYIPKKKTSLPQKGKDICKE
# [5] = organism: Cavia porcellus; test: Inhibition of peptidoleukotriene LTE4 induced contraction of guinea pig tracheal spirals at the concentration of 3.3 uM; Not significant; format: functional; details: Trachea
# [6] = biological target: T1, Cysteinyl leukotriene receptor 1; test: Inhibition constant for displacement of [3H]LTD4 on guinea pig lung parenchymal membranes.; format: tissue-based, Lung parenchyma
# [7] = organism: Cavia porcellus; test: Inhibition of peptidoleukotriene LTE4 induced contraction of guinea pig tracheal spirals at the concentration of 1 uM.; format: functional; details: Trachea
# [8] = system: Cavia porcellus; test: Percent protection of animals against aerosolized LTD4-induced dyspnea at the concentration of 1.8 mg/kg.; format: functional
# [9] = system: Cavia porcellus; test: Percent protection of animals against aerosolized LTD4-induced dyspnea at the concentration of 0.6 mg/kg; Not significant; format: functional, organism-based; parameters: dose 0.6 mg/kg
# [10] = organism: Cavia porcellus; test: Inhibition of peptidoleukotriene LTE4 induced contraction of guinea pig tracheal spirals at the concentration of 3.3 uM.; format: functional; details: Trachea
# [11] = system: Cavia porcellus; test: Percent protection of animals against aerosolized LTD4-induced dyspnea at the concentration of 0.6 mg/kg.; format: functional; details: inhaled or nasal
# [12] = organism: Cavia porcellus; test: Inhibition of peptidoleukotriene LTE4 induced contraction of guinea pig tracheal spirals at the concentration of 100 uM.; format: functional; details: Trachea
Structure (SMILES),Ki [1],pKB [2],other results
COc1cc(C(=O)O)ccc1Cc1cn(C2CCCC2)c2ccc(NC(=O)OC3CCCC3)cc12,53 nM,7.67,–
COc1cc(C(=O)NS(=O)(=O)c2ccccc2)ccc1Cc1cn(C)c2ccc(NC(=O)NC3CCCC3)cc12,–,–,ED50 [3]: ~35 mg/kg; Ki [4]: 0.8 nM
COc1cc(C(=O)NS(=O)(=O)c2ccccc2)ccc1Cc1cn(C)c2ccc(NC(=O)CC3CCCC3)cc12,–,9.8,ED50 [3]: 1 mg/kg; Ki [4]: 0.3 nM
CCCc1c(OCCCCc2nnn[nH]2)ccc(C(C)=O)c1O [TOMELUKAST],–,–,Ki [4]: 2820 nM
COc1cc(C(=O)O)ccc1Cn1ncc2ccc(NC(=O)OC3CCCC3)cc21,–,–,Ki [4]: 80 nM
COc1cc(C(=O)NS(=O)(=O)c2ccccc2Cl)ccc1Cc1cn(C)c2ccc(NC(=O)NC3CCCC3)cc12,0.7 nM,10.2,–
COc1cc(C(=O)NS(=O)(=O)c2ccccc2C)ccc1Cc1cn(C)c2ccc(NC(=O)OC3CCCC3)cc12 [ZAFIRLUKAST],–,–,ED50 [3]: 0.3 mg/kg
COc1cc(C(=O)O)ccc1Cc1cn(CC2CC2)c2ccc(NC(=O)OC3CCCC3)cc12,57 nM,–,–
CCCCCC(=O)Nc1ccc2c(c1)c(Cc1ccc(C(=O)O)cc1OC)cn2CC(=O)O,–,–,inhibition [5]: inactive
COc1cc(C(=O)NS(=O)(=O)c2ccccc2Cl)ccc1Cc1nn(C)c2ccc(NC(=O)NC3CCC3)cc12,0.1 nM,–,ED50 [3]: 1 mg/kg
COc1cc(C(=O)O)ccc1Cc1c[nH]c2ccc(NC(=O)OC3CCCC3)cc12,–,7.32,Ki [6]: 236 nM
COc1cc(C(=O)NS(=O)(=O)c2ccccc2)ccc1Cc1cn(C)c2ccc(NC(=O)OC3CCCC3)cc12,0.8 nM,9.69,ED50 [3]: 2.5 mg/kg
CCCCCC(=O)Nc1ccc2c(c1)c(Cc1ccc(C(=O)O)cc1OC)cn2Cc1ccccc1,–,–,inhibition at 1 µM [7]: 38%
COc1cc(C(=O)NS(=O)(=O)c2ccccc2C)ccc1Cc1cn(C)c2ccc(NC(=O)CC3CCCC3)cc12,–,9.64,ED50 [3]: 0.2 mg/kg; Ki [4]: 0.5 nM
COc1cc(C(=O)NS(=O)(=O)c2ccccc2Cl)ccc1Cc1nn(C)c2ccc(NC(=O)CC3CCCCC3)cc12,0.25 nM,–,protection at 1.8 mg/kg [8]: 71%; ED50 [9]: inactive
CCCn1cc(Cc2ccc(C(=O)O)cc2OC)c2cc(NC(=O)CC3CCCC3)ccc21,84 nM,–,–
CCCCCC(=O)Nc1ccc2c(c1)c(Cc1ccc(C(=O)O)cc1OC)cn2C,–,–,Ki [6]: 1900 nM; inhibition at 1 µM [7]: 77%
CCCCCC(=O)Nc1ccc2[nH]cc(Cc3ccc(C(=O)O)cc3OC)c2c1,–,–,inhibition at 3.3 µM [10]: 64%
COc1cc(C(=O)NS(=O)(=O)c2ccccc2C)ccc1Cc1nn(C)c2ccc(NC(=O)CC3CCCC3)cc12,0.3 nM,–,protection at 1.8 mg/kg [8]: 100%; protection at 0.6 mg/kg [11]: 47%
COc1cc(C(=O)NS(=O)(=O)c2ccccc2C)ccc1Cc1cn(C)c2ccc(NC(=O)NC3CCCC3)cc12,–,9.31,ED50 [3]: 0.9 mg/kg; Ki [4]: 1.4 nM
CCCC(CC)C(=O)Nc1ccc2c(c1)c(Cc1ccc(C(=O)O)cc1OC)cn2C (stereo unspecified),–,–,Ki [6]: 1830 nM
COc1cc(C(=O)O)ccc1Cn1ncc2ccc(NC(=O)CC3CCCC3)cc21,–,–,Ki [4]: 50 nM
COc1cc(C(=O)O)ccc1Cc1cn(C)c2ccc(NC(=O)CC3CCCC3)cc12,–,–,Ki [6]: 80 nM; inhibition at 100 µM [12]: 94%
COc1cc(C(=O)NS(=O)(=O)c2ccccc2Br)ccc1Cc1cn(C)c2ccc(NC(=O)CC3CCCC3)cc12,0.5 nM,10.1,–
COc1cc(C(=O)NS(=O)(=O)c2ccccc2C)ccc1Cc1nn(C)c2ccc(NC(=O)OC3CCCC3)cc12,0.3 nM,–,ED50 [3]: 0.5 mg/kg

Structure (SMILES),Ki [1],pKB [2],other results
COc1cc(C(=O)NS(=O)(=O)c2ccccc2Br)ccc1Cc1nn(C)c2ccc(NC(=O)OC3CCCC3)cc12,0.3 nM,–,ED50 [3]: 1.1 mg/kg
COc1cc(C(=O)NS(=O)(=O)c2ccccc2Cl)ccc1Cc1nn(C)c2ccc(NC(=O)CC3CCCC3)cc12,0.3 nM,–,protection at 0.6 mg/kg [11]: 48%
COc1cc(C(=O)NS(=O)(=O)c2ccccc2C)ccc1Cc1c[nH]c2ccc(NC(=O)CC3CCCC3)cc12,–,9.69,ED50 [3]: 1.3 mg/kg; Ki [4]: 1 nM
COc1cc(C(=O)O)ccc1Cc1nn(C)c2ccc(NC(=O)OC3CCCC3)cc12,–,–,Ki [4]: 160 nM
CCCn1cc(Cc2ccc(C(=O)NS(=O)(=O)c3ccccc3)cc2OC)c2cc(NC(=O)NC3CCCC3)ccc21,–,9.2,Ki [4]: 0.5 nM
COc1cc(C(=O)NS(=O)(=O)C(C)C)ccc1Cc1cn(Cc2cccc(C#N)c2)c2ccc(NC(=O)CC3CCCC3)cc12,6.8 nM,9.28,–
CCCn1cc(Cc2ccc(C(=O)NS(=O)(=O)c3ccccc3)cc2OC)c2cc(NC(=O)OC3CCCC3)ccc21,–,8.44,ED50 [3]: 1 mg/kg
CCn1cc(Cc2ccc(C(=O)O)cc2OC)c2cc(NC(=O)CC3CCCC3)ccc21,71 nM,–,–
COc1cc(C(=O)O)ccc1Cc1nn(C)c2ccc(NC(=O)CC3CCCC3)cc12,132 nM,–,–
COc1cc(C(=O)NS(=O)(=O)c2ccccc2)ccc1Cc1cn(C2CCCC2)c2ccc(NC(=O)OC3CCCC3)cc12,67 nM,7.84,–
COc1cc(C(=O)O)ccc1Cc1cn(Cc2cccc(C#N)c2)c2ccc(NC(=O)CC3CCCC3)cc12,10 nM,8.55,–
COc1cc(C(=O)O)ccc1Cn1ccc2ccc(NC(=O)CC3CCCC3)cc21,–,7.68,Ki [4]: 200 nM
COCCn1cc(Cc2ccc(C(=O)O)cc2OC)c2cc(NC(=O)OC3CCCC3)ccc21,–,–,Ki [6]: 41 nM
COc1cc(C(=O)NS(=O)(=O)c2ccccc2)ccc1Cc1nn(C)c2ccc(NC(=O)OC3CCCC3)cc12,0.25 nM,–,–
COc1cc(C(=O)NS(C)(=O)=O)ccc1Cc1cn(Cc2cccc(C#N)c2)c2ccc(NC(=O)CC3CCCC3)cc12,5.6 nM,9,–
C=CCn1cc(Cc2ccc(C(=O)O)cc2OC)c2cc(NC(=O)CCCCC)ccc21,–,–,inhibition at 1 µM [7]: 43%
COc1cc(C(=O)O)ccc1Cc1cn(C)c2ccc(NC(=O)NC3CCCC3)cc12,–,–,Ki [6]: 1120 nM
COc1cc(C(=O)O)ccc1Cc1cn(Cc2ccccc2)c2ccc(NC(=O)CC3CCCC3)cc12,70 nM,–,–
COc1cc(C(=O)NS(=O)(=O)c2ccccc2)ccc1Cc1c[nH]c2ccc(NC(=O)OC3CCCC3)cc12,1.4 nM,9.8,–
CCCn1cc(Cc2ccc(C(=O)O)cc2OC)c2cc(NC(=O)OC3CCCC3)ccc21,–,7.72,Ki [6]: 58 nM
COc1cc(C(=O)O)ccc1Cn1ccc2ccc(NC(=O)OC3CCCC3)cc21,–,7.8,Ki [4]: 160 nM
COc1cc(C(=O)NS(=O)(=O)c2ccccc2Cl)ccc1Cc1cn(C)c2ccc(NC(=O)CC3CCCC3)cc12,0.3 nM,9.85,–
COc1cc(C(=O)O)ccc1Cc1cn(C)c2ccc(NC(=O)OC3CCCC3)cc12,–,7.84,Ki [6]: 157 nM; inhibition at 100 µM [12]: 75%
COCCn1cc(Cc2ccc(C(=O)NS(=O)(=O)c3ccccc3)cc2OC)c2cc(NC(=O)OC3CCCC3)ccc21,0.2 nM,9.39,ED50 [3]: 1.1 mg/kg
COc1cc(C(=O)NS(=O)(=O)c2ccccc2Cl)ccc1Cc1nn(C)c2ccc(NC(=O)OC3CCCC3)cc12,0.3 nM,–,ED50 [3]: 1 mg/kg
